Each structure is given as a SMILES string.

The values that follow come from US20250092065A1, “2-(INDAZOL-5-YL)-6-(PIPERIDIN-4-YL)-1,7-NAPHTHYRIDINE DERIVATIVES AND RELATED COMPOUNDS AS MODULATORS FOR SPLICING NUCLEIC ACIDS AND FOR THE TREATMENT OF PROLIFERATIVE DISEASES” (REMIX THERAPEUTICS INC., priority 2022, published 2025).

Assay [1] relates to Target C. The experiment in a line: RT-qPCR canonical junction panel assay, Target C mRNA. It is filed as cell-based. As to conditions: Table 4, read-out: Target C IC50 (decrease in CJ mRNA levels). In a few lines:
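IC50 is the concentration giving 50% CJ decrease, from a 4-parameter logistic fit of percent response; response derived from ΔΔCt against housekeeper and DMSO over a fixed ΔCt window, with canonical exon-junction qPCR in compound-treated K562 or A673 cells.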
(In general: In qPCR the cycle at which signal appears reflects the starting amount.)

The test system of assay [2] is HTT. The experiment in a line: HiBiT protein abundance assay, HTT (K562 HiBiT knock-in). As to conditions: HiBiT knock-in K562 cells, 24 hours, top dose 10 μM. It is filed as cell-based, human. A digest of the protocol:
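Luminescence readout: Nano-Glo HiBiT lytic detection after 24 h compound exposure of K562 HiBiT knock-in cells, 10000 cells/well. Dosing 10-pt, 3-fold, top 10 μM final. % response vs untreated parental K562 and DMSO controls; 4PL fit, IC50 = concentration giving 50% protein abundance.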
For orientation: With HiBiT, luminescence reflects the tagged protein that the partner subunit can reach.

For `Cn1cc2cc(-c3ccc4nc(N5CCC(NC6CC6)C5)ccc4n3)c(O)c(F)c2n1` (racemic) [Compound 287, 5-{6-[3-(cyclopropylamino)pyrrolidin-1-yl]-1,5-naphthyridin-2-yl}-7-fluoro-2-methylindazol-6-ol; trifluoroacetic acid], the IC50 in assay [1] and in assay [2] was below 100 nM in each case.

Consider `CC(C)N[C@@H]1CCN(c2ccc3nc(-c4cc5cn(C)nc5c(F)c4O)ccc3n2)C1` (single isomer, unassigned) [Compound 285], for which the IC50 in assay [1] and in assay [2] was below 100 nM each time.

`CC(C)N[C@H]1CCN(c2ccc3nc(-c4cc5cn(C)nc5c(F)c4O)ccc3n2)C1` (single isomer, unassigned) [Compound 286]: the 50% inhibitory concentration (IC50) in assay [1] and in assay [2] was below 100 nM throughout.

Regarding `Cc1c(O)c(-c2ccc3nc(N4CC[C@@H](NC5CCC5)C4)ccc3n2)cc2cn(C)nc12` (single isomer, unassigned) [Compound 289], the IC50 in assay [1] and in assay [2] was below 100 nM each time.

With `Cc1c(O)c(-c2ccc3nc(N4CC[C@H](NC5CCC5)C4)ccc3n2)cc2cn(C)nc12` (single isomer, unassigned) [Compound 290], the half-inhibitory concentration (IC50) in assay [1] and in assay [2] was below 100 nM throughout.

Consider `Cc1nc2cc(O)c(-c3ccc4nc(N5CCC(NCC6CC6)C5)ccc4n3)cc2o1` (single isomer, unassigned) [Compound 291, 6-(6-{3-[(cyclopropylmethyl)amino]pyrrolidin-1-yl}-1,5-naphthyridin-2-yl)-2-methyl-1,3-benzoxazol-5-ol], for which the IC50 is 100 to 1000 nM in assay [1] and below 100 nM in assay [2].

For `Cc1nc2cc(O)c(-c3ccc4nc(N5CCC(NCC6CC6)C5)ccc4n3)cc2o1` (single isomer, unassigned) [Compound 292, 6-(6-{3-[(cyclopropylmethyl)amino]pyrrolidin-1-yl}-1,5-naphthyridin-2-yl)-2-methyl-1,3-benzoxazol-5-ol], the half-maximal inhibitory concentration (IC50) was 100 to 1000 nM in assay [1] and below 100 nM in assay [2].

As for `Cc1nc2c(C)c(O)c(-c3ccc4nc(N5CC[C@@H](NCC6CC6)C5)ccc4n3)cc2o1` (single isomer, unassigned) [Compound 295], the results for the IC50 in assay [1] and in assay [2] were 100 to 1000 nM and below 100 nM, respectively.

`Cc1nc2c(C)c(O)c(-c3ccc4nc(N5CC[C@H](NCC6CC6)C5)ccc4n3)cc2o1` (single isomer, unassigned) [Compound 296]: the half-maximal inhibitory concentration (IC50) in assay [1] and in assay [2] was below 100 nM throughout.

Turning to `Cn1cc2cc(-c3ccc4nc(N5CC[C@@H](N[C@H]6C[C@@H](F)C6)C5)ccc4n3)c(O)cc2n1` (single isomer, unassigned) [Compound 300], the IC50 in assay [1] and in assay [2] was below 100 nM each time.

On to `Cn1cc2cc(-c3ccc4nc(N5CC[C@@H](NCC6CC6)C5)ccc4n3)c(O)c(F)c2n1` (single isomer, unassigned) [Compound 303], for which the IC50 in assay [1] and in assay [2] was below 100 nM throughout.

Turning to `Cn1cc2cc(-c3ccc4nc(N5CC[C@H](NCC6CC6)C5)ccc4n3)c(O)c(F)c2n1` (single isomer, unassigned) [Compound 304], the IC50 in assay [1] and in assay [2] was below 100 nM each time.

Regarding `Cn1cc2cc(-c3ccc4nc(N5CC[C@@H](NC6CC6)C5)ccc4n3)c(O)c(F)c2n1` (single isomer, unassigned) [Compound 305], the IC50 in assay [1] and in assay [2] was below 100 nM each time.

`Cn1cc2cc(-c3ccc4nc(N5CC[C@H](NC6CC6)C5)ccc4n3)c(O)c(F)c2n1` (single isomer, unassigned) [Compound 306]: the IC50 in assay [1] and in assay [2] was below 100 nM each time.

Turning to `Cc1nc2c(F)c(O)c(-c3ccc4nc(N5CC[C@@H](NC6CCC6)C5)ccc4n3)cc2o1` (single isomer, unassigned) [Compound 307], the IC50 in assay [1] and in assay [2] was below 100 nM throughout.

As to `Cc1nc2c(F)c(O)c(-c3ccc4nc(N5CC[C@H](NC6CCC6)C5)ccc4n3)cc2o1` (single isomer, unassigned) [Compound 308], the IC50 in assay [1] and in assay [2] was below 100 nM each time.

Turning to `Cc1nc2c(C)c(O)c(-c3ccc4nc(N5CC[C@@H](NC6(C)CC6)C5)ccc4n3)cc2o1` (single isomer, unassigned) [Compound 310], the half-inhibitory concentration (IC50) in assay [1] and in assay [2] was below 100 nM throughout.

Regarding `Cc1nc2c(C)c(O)c(-c3ccc4nc(N5CC[C@H](NC6(C)CC6)C5)ccc4n3)cc2o1` (single isomer, unassigned) [Compound 311], the values for the half-inhibitory concentration (IC50) in assay [1] and in assay [2] were 100 to 1000 nM and below 100 nM, respectively.

Turning to `Cc1nc2c(C)c(O)c(-c3ccc4nc(N5CC[C@@H](NC(C)C)C5)ccc4n3)cc2o1` (single isomer, unassigned) [Compound 313], the IC50 in assay [1] and in assay [2] was below 100 nM throughout.

Turning to `Cc1nc2c(C)c(O)c(-c3ccc4nc(N5CC[C@H](NC(C)C)C5)ccc4n3)cc2o1` (single isomer, unassigned) [Compound 314], the concentration for half-maximal inhibition (IC50) in assay [1] and in assay [2] was below 100 nM in each case.

For `Cn1cc2cc(-c3ccc4nc(N5CC[C@@H](NC6CCC6)C5)ccc4n3)c(O)c(F)c2n1` (single isomer, unassigned) [Compound 316], the half-inhibitory concentration (IC50) in assay [1] and in assay [2] was below 100 nM throughout.

On to `Cn1cc2cc(-c3ccc4nc(N5CC[C@H](NC6CCC6)C5)ccc4n3)c(O)c(F)c2n1` (single isomer, unassigned) [Compound 317], for which the 50% inhibitory concentration (IC50) in assay [1] and in assay [2] was below 100 nM in each case.

Consider `Cc1c(O)c(-c2ccc3nc(N4CC[C@@H](NC(C)C)C4)ccc3n2)cc2cn(C)nc12` (single isomer, unassigned) [Compound 319], for which the half-inhibitory concentration (IC50) in assay [1] and in assay [2] was below 100 nM throughout.

As to `Cc1c(O)c(-c2ccc3nc(N4CC[C@H](NCC5CC5)C4)ccc3n2)cc2cn(C)nc12` (single isomer, unassigned) [Compound 321], the IC50 in assay [1] and in assay [2] was below 100 nM each time.

As for `Cc1c(O)c(-c2ccc3nc(N4CC[C@@H](NCC5CC5)C4)ccc3n2)cc2cn(C)nc12` (single isomer, unassigned) [Compound 322], the concentration for half-maximal inhibition (IC50) in assay [1] and in assay [2] was below 100 nM each time.

Consider `Cc1nc2c(F)c(O)c(-c3ccc4nc(N5CC[C@@H](NCC6CC6)C5)ccc4n3)cc2o1` (single isomer, unassigned) [Compound 323], for which the IC50 in assay [1] and in assay [2] was below 100 nM in each case.

As for `Cc1nc2c(F)c(O)c(-c3ccc4nc(N5CC[C@H](NCC6CC6)C5)ccc4n3)cc2o1` (single isomer, unassigned) [Compound 324], the IC50 in assay [1] and in assay [2] was below 100 nM in each case.

Consider `Cc1nc2c(F)c(O)c(-c3ccc4nc(N5CC[C@@H](NC(C)C)C5)ccc4n3)cc2o1` (single isomer, unassigned) [Compound 329], for which the half-maximal inhibitory concentration (IC50) in assay [1] and in assay [2] was below 100 nM each time.

For the molecule `Cc1nc2c(F)c(O)c(-c3ccc4nc(N5CC[C@H](NC(C)C)C5)ccc4n3)cc2o1` (single isomer, unassigned) [Compound 330], the IC50 in assay [1] and in assay [2] was below 100 nM throughout.

Take `Cn1cc2cc(-c3ccc4nc(N5CC[C@H](N[C@H]6C[C@H](F)C6)C5)ccc4n3)c(O)c(F)c2n1` (single isomer, unassigned) [Compound 347]: the half-maximal inhibitory concentration (IC50) in assay [1] and in assay [2] was below 100 nM throughout.

With `Cc1nc2cc(O)c(-c3ccc4nc(N5CC[C@@H](N[C@H]6C[C@H](F)C6)C5)ccc4n3)cc2o1` (single isomer, unassigned) [Compound 348], the IC50 was 100 to 1000 nM in assay [1] and below 100 nM in assay [2].

`Cn1cc2cc(-c3ccc4nc(N5CC[C@@H](N[C@H]6C[C@H](F)C6)C5)ccc4n3)c(O)c(F)c2n1` (single isomer, unassigned) [Compound 349]: the 50% inhibitory concentration (IC50) in assay [1] and in assay [2] was below 100 nM in each case.

Turning to `Cc1nc2c(C)c(O)c(-c3ccc4nc(N5CC[C@H](N[C@H]6C[C@H](F)C6)C5)ccc4n3)cc2o1` (single isomer, unassigned) [Compound 351], the 50% inhibitory concentration (IC50) in assay [1] and in assay [2] was below 100 nM throughout.

Take `Cc1nc2c(C)c(O)c(-c3ccc4nc(N5CC[C@@H](N[C@H]6C[C@H](F)C6)C5)ccc4n3)cc2o1` (single isomer, unassigned) [Compound 352]: the half-inhibitory concentration (IC50) in assay [1] and in assay [2] was below 100 nM in each case.

With `Cc1nc2c(F)c(O)c(-c3ccc4nc(N5CC[C@@H](NC6(C)CC6)C5)ccc4n3)cc2o1` (stereo in doubt) [Compound 326, 4-fluoro-2-methyl-6-{6-[(3 S)-3-[(1-methylcyclopropyl)amino]pyrrolidin-1-yl]-1,5-naphthyridin-2-yl}-1,3-benzoxazol-5-ol], the 50% inhibitory concentration (IC50) in assay [1] and in assay [2] was below 100 nM throughout.

Take `Cc1nc2c(F)c(O)c(-c3ccc4nc(N5CCC(NC6(C)CC6)C5)ccc4n3)cc2o1` (stereo in doubt) [Compound 327, 4-fluoro-2-methyl-6-{6-[(3R)-3-[(1-methylcyclopropyl)amino]pyrrolidin-1-yl]-1,5-naphthyridin-2-yl}-1,3-benzoxazol-5-ol]: the concentration for half-maximal inhibition (IC50) in assay [1] and in assay [2] was below 100 nM each time.

Regarding `Cc1nc2c(C)c(O)c(-c3ccc4nc(N5CC[C@H](NC(C)(C)C)C5)ccc4n3)cc2o1` [Compound 214], the half-maximal inhibitory concentration (IC50) in assay [1] and in assay [2] was below 100 nM throughout.

Regarding `Cc1nc2c(C)c(O)c(-c3ccc4nc(N5CC[C@H](NC6CC6)C5)ccc4n3)cc2o1` [Compound 216], the half-inhibitory concentration (IC50) in assay [1] and in assay [2] was below 100 nM in each case.

Turning to `Cc1nc2c(C)c(O)c(-c3ccc4nc(N5CC[C@@H](NC6CC6)C5)ccc4n3)cc2o1` [Compound 217], the IC50 in assay [1] and in assay [2] was below 100 nM in each case.

By IC50 is commonly meant the concentration needed to halve the response being measured.
